One test has as its target T1, serotonin transporter (Rattus norvegicus, UniProt P31652).
T1 construct: displace ^3H-paroxetine from male rat cortical membranes; from tissue; host or cells: male rat cortical membranes
The test can be described thus: 5-HT transporter affinity: displacement of 3H-paroxetine from male rat cortical membranes. It counts as binding. Particulars: displacement of 3H-paroxetine, male rat cortical membranes.

Test [1] addresses T2, cloned human 5-HT1A receptors (Homo sapiens, UniProt P08908).
T2 construct: expressed in transfected cells
T2 sequence (P08908 1-422): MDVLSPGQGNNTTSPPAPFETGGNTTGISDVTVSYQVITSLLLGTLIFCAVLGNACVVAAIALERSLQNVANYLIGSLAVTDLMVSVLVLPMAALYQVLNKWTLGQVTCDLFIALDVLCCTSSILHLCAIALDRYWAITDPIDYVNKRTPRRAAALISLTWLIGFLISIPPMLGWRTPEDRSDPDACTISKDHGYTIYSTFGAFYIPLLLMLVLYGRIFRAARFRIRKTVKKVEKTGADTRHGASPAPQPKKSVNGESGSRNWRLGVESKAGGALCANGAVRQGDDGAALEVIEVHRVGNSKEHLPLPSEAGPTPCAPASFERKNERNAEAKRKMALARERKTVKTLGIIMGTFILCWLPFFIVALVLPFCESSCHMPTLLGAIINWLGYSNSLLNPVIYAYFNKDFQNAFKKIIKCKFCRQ
The test can be described thus: 35S-GTPγS binding assay, 5-HT1A function. The test is classed as biochemical. Particulars: for EC50: agonist potency; for IC50: antagonist potency, reversal of 8-OH-DPAT, read-out: 5-HT1A Function GTPγS IC50.

In the next test the target is T3, 5-HT1A receptor (Homo sapiens, UniProt P08908).
T3 sequence (P08908 1-422): T2 sequence (P08908 1-422)
As to the kind of experiment: 5-HT1A receptor affinity: displacement of [3H] 8-OH-DPAT. It counts as binding. Also on record: expressed in transfected cells. Particulars: for Ki: displacement of [3H] 8-OH-DPAT, CHO cells stably transfected with human 5-HT1A receptors, read-out: 5-HT1A Receptor Affinity Ki; for inhibition at 1 µM: read-out: 5-HT1A Receptor Affinity, % @ 1 μM.

The mark [2] stands for this setting: read-out: 5-HT Transporter Affinity Ki.
The mark [3] stands for this setting: maximum stimulatory effect, in brackets after EC50, read-out: 5-HT1A Function GTPγS (Emax).
The mark [4] stands for this setting: maximum inhibitory effect, in brackets after IC50, read-out: 5-HT1A Function GTPγS (Imax).

Molecules are shown by their SMILES. Read-outs that look alike come from different tables or passages of the source.

T1 sequence (P31652 whole entry): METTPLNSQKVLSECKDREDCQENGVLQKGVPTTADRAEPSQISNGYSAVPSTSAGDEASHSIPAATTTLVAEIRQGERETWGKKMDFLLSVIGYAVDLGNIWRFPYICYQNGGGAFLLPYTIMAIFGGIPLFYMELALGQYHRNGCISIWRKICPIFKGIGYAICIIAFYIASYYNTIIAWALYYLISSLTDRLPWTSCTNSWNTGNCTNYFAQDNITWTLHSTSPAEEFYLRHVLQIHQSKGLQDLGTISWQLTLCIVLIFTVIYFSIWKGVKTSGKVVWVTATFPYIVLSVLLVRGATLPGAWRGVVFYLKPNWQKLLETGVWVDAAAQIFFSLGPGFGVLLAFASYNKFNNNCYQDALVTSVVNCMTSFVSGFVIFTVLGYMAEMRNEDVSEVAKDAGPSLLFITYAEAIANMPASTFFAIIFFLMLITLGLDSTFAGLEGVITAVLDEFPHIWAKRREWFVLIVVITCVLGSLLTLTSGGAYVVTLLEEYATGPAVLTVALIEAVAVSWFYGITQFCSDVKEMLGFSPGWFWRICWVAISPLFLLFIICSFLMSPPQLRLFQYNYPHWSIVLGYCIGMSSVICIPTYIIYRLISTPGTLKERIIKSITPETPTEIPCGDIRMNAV

Take `COC(=O)c1ccc(F)c2c1CC(N(CCCCc1c[nH]c3ccc(F)cc13)C1CCC1)CO2` (stereo not shown) [Compound 58, Methyl 3-{cyclobutyl[4-(5-fluoro-1H-indol-3-yl)butyl]amino}-8-fluorochromane-5-carboxylate]: the Ki on serotonin transporter (setting [2]) came out at 35.6 nM; at 5-HT1A receptor it was 202 nM. The molecule also came in with an EC50 in test [1] of 8020 nM. Moreover, the Emax in test [1] (setting [3]) was 49%.

Turning to `COC(=O)c1ccc(F)c2c1C[C@H](N(CCCCc1c[nH]c3ccc(F)cc13)C1CCC1)CO2` [Compound 58a, Methyl (3S)-3-{cyclobutyl[4-(5-fluoro-1H-indol-3-yl)butyl]amino}-8-fluorochromane-5-carboxylate], at serotonin transporter (setting [2]), the Ki was 46.6 nM. Besides, the IC50 in test [1] worked out at 1960 nM. The Emax in test [1] (setting [4]) was 25%. For the same molecule, on 5-HT1A receptor, the inhibition at 1 µM turned out to be 0%.

As for `COC(=O)c1ccc(F)c2c1C[C@@H](N(CCCCc1c[nH]c3ccc(F)cc13)C1CCC1)CO2` [Compound 58b, Methyl (3R)-3-{cyclobutyl[4-(5-fluoro-1H-indol-3-yl)butyl]amino}-8-fluorochromane-5-carboxylate], the Ki came out at 29.2 nM on serotonin transporter (setting [2]) and 138 nM on 5-HT1A receptor. The IC50 in test [1] was 626 nM. For the same molecule, the Emax in test [1] (setting [4]) was 94%.

Take `CCCCNC(=O)c1ccc(F)c2c1CC(N(CCCc1c[nH]c3ccc(F)cc13)C1CCC1)CO2` (stereo not shown) [Compound 62, N-butyl-3-{cyclobutyl[3-(5-fluoro-1H-indol-3-yl)propyl]amino}-8-fluorochromane-5-carboxamide]: on serotonin transporter (setting [2]), the Ki is 4.55 nM. The IC50 in test [1] worked out at 1900 nM. Also, in test [1] (setting [4]), the Emax is 50%. In addition, the inhibition at 1 µM on 5-HT1A receptor is 40%.

For the molecule `O=C(NC1CCCC1)c1ccc(F)c2c1CC(N(CCCc1c[nH]c3ccc(F)cc13)C1CCC1)CO2` (stereo not shown) [Compound 66, 3-{cyclobutyl[3-(5-fluoro-1H-indol-3-yl)propyl]amino}-N-cyclopentyl-8-fluorochromane-5-carboxamide], the Ki at serotonin transporter (setting [2]) is 5.65 nM. Also, in test [1], the EC50 was 7500 nM. In addition, the Emax in test [1] (setting [3]) turned out to be 38%. Further, the inhibition at 1 µM at 5-HT1A receptor worked out at 41%.

As for `O=C(NC1CCCCC1)c1ccc(F)c2c1CC(N(CCCc1c[nH]c3ccc(F)cc13)C1CCC1)CO2` (stereo not shown) [Compound 67, 3-{cyclobutyl[3-(5-fluoro-1H-indol-3-yl)propyl]amino}-N-cyclohexyl-8-fluorochromane-5-carboxamide], on serotonin transporter (setting [2]), the Ki came to 19.8 nM. Moreover, the IC50 in test [1] was found to be 1970 nM. The Emax in test [1] (setting [4]) was 76%. The inhibition at 1 µM on 5-HT1A receptor is 44%.

`O=C(NCC1CC1)c1ccc(F)c2c1CC(N(CCCc1c[nH]c3ccc(F)cc13)C1CCC1)CO2` (stereo not shown) [Compound 68, 3-{cyclobutyl[3-(5-fluoro-1H-indol-3-yl)propyl]amino}-N-(cyclopropylmethyl)-8-fluorochromane-5-carboxamide]: the results for the Ki on serotonin transporter (setting [2]) and on 5-HT1A receptor were 4.4 nM and 161 nM, respectively. Besides, the IC50 in test [1] was 1300 nM. Besides, in test [1] (setting [4]), the Emax amounted to 50%.

As for `O=C(Nc1ccccc1)c1ccc(F)c2c1CC(N(CCCc1c[nH]c3ccc(F)cc13)C1CCC1)CO2` (stereo not shown) [Compound 70, 3-{cyclobutyl[3-(5-fluoro-1H-indol-3-yl)propyl]amino}-8-fluoro-N-phenylchromane-5-carboxamide], the Ki at serotonin transporter (setting [2]) came to 37.2 nM. This molecule also registered an EC50 in test [1] of 1800 nM. Besides, the Emax in test [1] (setting [3]) stood at 22%. Further, at 5-HT1A receptor, the inhibition at 1 µM stood at 36%.

Regarding `CCCCCN(CCCc1c[nH]c2ccc(F)cc12)C1COc2c(F)ccc(C(N)=O)c2C1` (stereo not shown) [Compound 71, 8-fluoro-3-[[3-(5-fluoro-1H-indol-3-yl)propyl](pentyl)amino]chromane-5-carboxamide], the Ki at serotonin transporter (setting [2]) came out at 212 nM. In test [1], the IC50 amounted to 8000 nM. Moreover, in test [1] (setting [4]), the Emax came out at 13%. Further, the inhibition at 1 µM on 5-HT1A receptor came out at 44%.

With `NC(=O)c1ccc(F)c2c1CC(NCCc1c[nH]c3ccc(F)cc13)CO2` (stereo not shown) [Compound 75, 8-fluoro-3-{[2-(5-fluoro-1H-indol-3-yl)ethyl]amino}chromane-5-carboxamide], the Ki on serotonin transporter (setting [2]) turned out to be 1030 nM. Besides, the IC50 in test [1] was 2150 nM. Moreover, the Emax in test [1] (setting [4]) is 40%. In addition, the inhibition at 1 µM at 5-HT1A receptor was 0%.

Take `NC(=O)c1ccc(F)c2c1CC(NCCCCc1c[nH]c3ccc(F)cc13)CO2` (stereo not shown) [Compound 79, 8-fluoro-3-{[4-(5-fluoro-1H-indol-3-yl)butyl]amino}chromane-5-carboxamide]: the Ki on serotonin transporter (setting [2]) came out at 4.46 nM. The IC50 in test [1] turned out to be 2660 nM. In test [1] (setting [4]), the Emax is 63%. Also, the inhibition at 1 µM on 5-HT1A receptor came to 43%.

As to `CCN(CCc1c[nH]c2ccc(F)cc12)C1COc2c(F)ccc(C(=O)NC)c2C1` (stereo not shown) [Compound 85, 3-{ethyl[2-(5-fluoro-1H-indol-3-yl)ethyl]amino}-8-fluoro-N-methylchromane-5-carboxamide], the affinity on serotonin transporter (5-HT Transporter Affinity Ki (nM)), expressed as Ki, was 35.4 nM. Also, in test [1], the IC50 came out at 3580 nM. Further, the Emax in test [1] (setting [4]) was found to be 72%. The inhibition at 1 µM on 5-HT1A receptor turned out to be 46%.

Turning to `CNC(=O)c1ccc(F)c2c1CC(NCCCc1c[nH]c3ccc(F)cc13)CO2` (stereo not shown) [Compound 88, 8-fluoro-3-{[3-(5-fluoro-1H-indol-3-yl)propyl]amino}-N-methylchromane-5-carboxamide], the values for the Ki at serotonin transporter (setting [2]) and on 5-HT1A receptor were 12.2 nM and 54.6 nM, respectively. Moreover, it took 1780 nM to reach a half-maximal effect in test [1] (EC50). The Emax in test [1] (setting [3]) was 94%.

Take `CCN(CCCc1c[nH]c2ccc(F)cc12)C1COc2c(F)ccc(C(=O)NC)c2C1` (stereo not shown) [Compound 89, 3-{ethyl[3-(5-fluoro-1H-indol-3-yl)propyl]amino}-8-fluoro-N-methylchromane-5-carboxamide]: the figures for the Ki at serotonin transporter (setting [2]) and on 5-HT1A receptor were 1.08 nM and 21.2 nM, respectively. In test [1], this molecule gave an EC50 of 110 nM. Also, in test [1] (setting [3]), the Emax amounted to 62%.

On to `CNC(=O)c1ccc(F)c2c1CC(NCCCCc1c[nH]c3ccc(F)cc13)CO2` (stereo not shown) [Compound 92, 8-fluoro-3-{[4-(5-fluoro-1H-indol-3-yl)butyl]amino}-N-methylchromane-5-carboxamide], for which the Ki on serotonin transporter (setting [2]) was 7.95 nM. The same molecule yielded a 50% effective concentration (EC50) in test [1] of 1170 nM. Further, the Emax in test [1] (setting [3]) was 50%. Further, at 5-HT1A receptor, the inhibition at 1 µM stood at 47%.

Regarding `COc1cccc2c(CCCNC3COc4c(F)ccc(C(N)=O)c4C3)c[nH]c12` (stereo not shown) [Compound 99, 8-fluoro-3-{[3-(7-methoxy-1H-indol-3-yl)propyl]amino}chromane-5-carboxamide], at serotonin transporter (setting [2]), the Ki was found to be 525 nM. Further, the IC50 in test [1] worked out at 4020 nM. The Emax in test [1] (setting [4]) came out at 100%. Also, the inhibition at 1 µM on 5-HT1A receptor was 48%.

`NC(=O)c1ccc(F)c2c1OCC(NCCCc1c[nH]c3ccc(F)cc13)C2` (stereo not shown) [Compound 119, 5-fluoro-3-{[3-(5-fluoro-1H-indol-3-yl)propyl]amino}chromane-8-carboxamide]: the values for the Ki on serotonin transporter (setting [2]) and on 5-HT1A receptor were 14.2 nM and 36.9 nM, respectively. In test [1], this molecule showed an EC50 of 3160 nM. The Emax in test [1] (setting [3]) is 100%.

As to `CCCN(CCCc1c[nH]c2ccc(F)cc12)C1COc2c(C(N)=O)ccc(F)c2C1` (stereo not shown) [Compound 120, 5-fluoro-3-[[3-(5-fluoro-1H-indol-3-yl)propyl](propyl)amino]chromane-8-carboxamide], the Ki worked out at 22.5 nM at serotonin transporter (setting [2]) and 139 nM on 5-HT1A receptor. In test [1], this molecule had an EC50 of 1100 nM. In test [1] (setting [3]), the Emax came to 67%.

For the molecule `NC(=O)c1ccc(F)c2c1OCC(N(CCCc1c[nH]c3ccc(F)cc13)CC1CC1)C2` (stereo not shown) [Compound 121, 3-{(cyclopropylmethyl)[3-(5-fluoro-1H-indol-3-yl)propyl]amino}-5-fluorochromane-8-carboxamide], the Ki is 41.8 nM on serotonin transporter (setting [2]) and 67.7 nM on 5-HT1A receptor. The molecule also showed an EC50 in test [1] of 3820 nM. Besides, the Emax in test [1] (setting [3]) stood at 70%.

As for `NC(=O)c1ccc(F)c2c1OCC(NCCCCc1c[nH]c3ccc(F)cc13)C2` (stereo not shown) [Compound 123, 5-fluoro-3-{[4-(5-fluoro-1H-indol-3-yl)butyl]amino}chromane-8-carboxamide], the Ki came to 3.81 nM on serotonin transporter (setting [2]) and 280 nM on 5-HT1A receptor. For the same molecule, the EC50 in test [1] stood at 2260 nM. Moreover, in test [1] (setting [3]), the Emax came to 100%.

For `CCCN(CCCCc1c[nH]c2ccc(F)cc12)C1COc2c(C(N)=O)ccc(F)c2C1` (stereo not shown) [Compound 124, 5-fluoro-3-[[4-(5-fluoro-1H-indol-3-yl)butyl](propyl)amino]chromane-8-carboxamide], the Ki on serotonin transporter (setting [2]) is 9.9 nM. Besides, the EC50 in test [1] is 698 nM. For the same molecule, in test [1] (setting [3]), the Emax is 41%. Also, the inhibition at 1 µM at 5-HT1A receptor came out at 48%.

Take `NC(=O)c1ccc(F)c2c1OCC(NCCCc1c[nH]c3c(F)cc(F)cc13)C2` (stereo not shown) [Compound 128, 3-{[3-(5,7-difluoro-1H-indol-3-yl)propyl]amino}-5-fluorochromane-8-carboxamide]: the Ki at serotonin transporter (setting [2]) is 54.5 nM. In test [1], this molecule gave an EC50 of 608 nM. The Emax in test [1] (setting [3]) is 59%. In addition, on 5-HT1A receptor, the inhibition at 1 µM was 47%.

For the origin of these results see patent US20050032873A1, “3-Amino chroman and 2-amino tetralin derivatives” (Wyeth, priority 2003, published 2005).
